Results published in US9233982B2, “Spiro tetrahydro—benzothiophen derivatives useful for the treatment neurodegenerative diseases” (Ares Trading S.A., priority 2012, dated 2016).

Key:
BACE-1 [1] = biological target: T1, BACE-1 (Homo sapiens, UniProt P56817); assay: LanthaScreen BACE1 biochemical assay (TR-FRET)
Experimental: Biochemical Assay to Assess Compounds for Inhibition of BACE-1
The LanthaScreen™ BACE1 assay kit from Invitrogen (Catalogue number PV4748) was used as the primary assay in the screening cascade.
Briefly, the test compound was incubated with the enzyme and substrate for 1 hour at room temperature in a reaction volume of 15 μl and then 5 nM terbium labelled anti-biotin antibody was added to stop the reaction and the solution incubated for a further 1 hour at room temperature. The microplate was read on an Envision plate reader fitted with a photometric 340 nm excitation filter and the amount of substrate that had been cleaved was represented by the TR-FRET ratio, calculated by dividing the Fluorescein emission signal (520 nm) by the Terbium emission signal (495 nm).

BACE-1 [2] = biological target: T1, BACE-1; assay: HTRF cell based assay, Aβ1-40 peptide secreted by recombinant HEK293 cells; design: endogenous in cells; host or cells: recombinant HEK293 cells engineered to over-produce APP; settings: Aβ1-40 secretion, recombinant HEK293 cells producing APP, overnight treatment; read-out: Cellular assay EC50 Ranges
Experimental: The cell based assay used to support the program utilized HTRF assay reagents from Cisbio (Catalogue number 62B40PEB) to quantify the amount of Aβ1-40 peptide secreted by recombinant HEK293 cells. The cells were engineered to produce high quantities of APP, the precursor for Aβ1-40 peptide, under hygromycin selection pressure. Briefly, cells were plated into 384-well microplates and allowed to settle for 2 hours prior to compound addition. Following overnight treatment with compound, the media containing secreted peptide was transferred into a low volume assay plate for quantification with HTRF immunoassay reagents. Adhering to the manufacturers protocol for quantification, a TR-FRET signal is obtained in the presence of the Aβ1-40 peptide following addition of a cryptate conjugated antibody and an XL665 conjugated antibody, each raised to a different epitope of the Aβ1-40 peptide. A low FRET signal is obtained when cells are treated with compounds that inhibit APP cleavage and peptide secretion.

T1 sequence (P56817 46-501): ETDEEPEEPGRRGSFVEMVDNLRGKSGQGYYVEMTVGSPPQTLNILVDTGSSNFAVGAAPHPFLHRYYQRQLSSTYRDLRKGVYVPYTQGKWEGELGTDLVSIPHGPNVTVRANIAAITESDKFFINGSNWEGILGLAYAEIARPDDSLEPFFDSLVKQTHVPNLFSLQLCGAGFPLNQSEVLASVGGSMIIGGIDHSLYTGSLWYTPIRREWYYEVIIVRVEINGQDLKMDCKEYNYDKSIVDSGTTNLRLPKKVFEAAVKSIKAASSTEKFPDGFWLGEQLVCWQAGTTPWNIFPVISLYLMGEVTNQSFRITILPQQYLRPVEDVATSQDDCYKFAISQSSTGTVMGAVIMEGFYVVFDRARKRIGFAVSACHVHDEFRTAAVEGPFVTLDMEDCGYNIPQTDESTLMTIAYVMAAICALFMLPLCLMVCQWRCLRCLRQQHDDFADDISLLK

Row | Structure (SMILES) | IC50 (BACE-1 [1]) [µM] | EC50 (BACE-1 [2]) [µM]
1 | CC(C)(C)c1cccc(-c2cc3c(s2)CCCC32CCSC(N)=N2)c1 (stereo not shown) [Example 37] | 5 to 65 | 5 to 50
2 | CS(=O)(=O)c1cccc(-c2cc3c(s2)CCCC32CCSC(N)=N2)c1 (stereo not shown) [Example 9] | 5 to 65 | 1 to 5
3 | NC1=NC2(CCCc3sc(-c4cccnc4)cc32)CCS1 (stereo not shown) [Example 4] | 5 to 65 | 5 to 50
4 | N#Cc1cc(F)cc(-c2cc3c(s2)CCCC32CCSC(N)=N2)c1 (stereo not shown) [Example 12] | 5 to 65 | 1 to 5

The remaining lines, values ahead:

Row | IC50 (BACE-1 [1]) [µM] | EC50 (BACE-1 [2]) [µM] | Structure (SMILES)
5 | 1 to 5 | 1 to 5 | COc1cc(C#N)cc(-c2cc3c(s2)CCCC32N=C(N)N(C)C2=O)c1 (stereo not shown) [Example 55]
6 | 1 to 5 | 5 to 50 | CC(C)c1cccc(-c2cc3c(s2)CCCC32CCSC(N)=N2)c1 (stereo not shown) [Example 27]
7 | 1 to 5 | 5 to 50 | COc1cccc(-c2cccc(-c3cc4c(s3)CCCC43CCSC(N)=N3)c2)c1 (stereo not shown) [Example 38]
8 | 1 to 5 | 5 to 50 | COc1ccc(CC2CCc3sc(-c4cccc(C#N)c4)cc3C23CCSC(N)=N3)cc1 (racemic) [Example 48]
